Test results from US8729095B2, “3-(biaryloxy)propionic acid derivatives for prevention and/or treatment of thromboembolic diseases” (Daiichi Sankyo Company, Limited, priority 2009, dated 2014).
pIC50: −log10 of the molar value.

Key:
[1] = system: platelet aggregation induced by ADP in human platelet-rich plasma (PRP); assay: Human platelet aggregation inhibitory activity (ADP-induced, platelet-rich plasma); assay type: cell-based; conditions: 8 min, ADP final concentration 20 μM, maximum aggregation rate, measured for 8 minutes
Experimental: A blood collecting syringe containing 1/10 volume of a 3.8% sodium citrate solution was used to collect blood from radial vein of a healthy person. The collected blood was centrifuged at 180×g at room temperature for 10 minutes to separate the supernatant (platelet-rich plasma; PRP). After PRP was separately collected, the remaining blood was centrifuged at 1,600×g for 10 minutes to separately collect platelet-poor plasma (PPP) of the upper layer. PRP was left at rest at 16° C. for 30 minutes, and subsequently used for measurement.
200 μL of the separately collected PRP was dispensed into a cuvette for the aggregation test, and 1 μL of dimethylsulfoxide (control) or a test compound solution diluted with dimethylsulfoxide was added, followed by incubation at 37° C. for 2 minutes. Subsequently, 2 μL of 2 mM ADP was added (final concentration 20 μM) to induce platelet aggregation.
Platelet aggregation was measured for 8 minutes using an aggregometer (MCM HEMA TRACER 313M; MC MEDICAL, INC.). With the light transmittance rate of PPP being set as an aggregation value of 100%, the maximum aggregation rate was determined for each concentration of the test compounds to calculate IC50 values.

[2] = system: platelet aggregation induced by ADP in rat platelet-rich plasma (PRP); assay: Platelet aggregation inhibitory activity during oral administration in a rat (ex vivo, ADP-induced); conditions: male Wistar rats, 1 mg/10 ml/kg orally, blood collected 4 hours after administration, ADP final concentration 3 μM, vs. control PRP (solvent only), read-out: Inhibition Rates (%)
Experimental: 1 mg/10 ml/kg of the test compound was orally administered by gavage to male rats (Slc: Wistar, age 8 to 9 weeks) that had been fasted overnight. 4 hours after administration, a syringe containing 1/10 volume of a 3.13% sodium citrate solution was used to collect blood from the abdominal aorta of a rat under anesthesia. From the collected blood, platelet-rich plasma (PRP) and platelet-poor plasma (PPP) were prepared according to the method described in the method for measuring human platelet aggregation inhibitory activity. PRP was left at rest at 16° C. for 30 minutes, and subsequently used for measurement.
200 μL of the separately collected PRP was dispensed into a cuvette for the aggregation test, followed by incubation at 37° C. for 2 minutes, and subsequently 2 μL of 0.3 mM ADP was added (final concentration 3 μM) to induce platelet aggregation.
Platelet aggregation was measured for 8 minutes using an aggregometer (MCM HEMA TRACER 313M; MC MEDICAL, INC.). With the light transmittance rate of PPP being set as an aggregation value of 100%, the maximum aggregation rate of PRP was determined, and compared with the maximum aggregation rate of control PRP (rat administered only with a solvent) to calculate inhibition rates.

SMILES | pIC50 [1] | inhibition at 1 mg/kg [2]
C[C@@H]1Oc2ncc(Cl)cc2N(C2CCN(C(=O)c3ccc(-c4ccccc4OCC(C)(C)C(=O)O)cc3F)CC2)C1=O [Example 2, 3-{[4′-({4-[(3S)-7-Chloro-3-methyl-2-oxo-2,3-dihydro-1H-pyrido[2,3-b][1,4]oxazin-1-yl]piperidin-1-yl}carbonyl)-3′-fluorobiphenyl-2-yl]oxy}-2,2-dimethylpropanoic acid] | 5.46 | 66%
C[C@H](CC(=O)O)Oc1ccccc1-c1ccc(C(=O)N2CCC(N3C(=O)C(C)(C)Cc4ncc(Cl)cc43)CC2)c(F)c1 [Example 5, (3R)-3-[(4′-{[4-(7-Chloro-3,3-dimethyl-2-oxo-3,4-dihydro-1,5-naphthyridin-1(2H)-yl)piperidin-1-yl]carbonyl}-3′-fluorobiphenyl-2-yl)oxy]butanoic acid] | 5.47 | 70%
C[C@H](CC(=O)O)Oc1ccccc1-c1ccc(C(=O)N2CCC(N3C(=O)C(C)(C)Oc4ncc(Cl)cc43)CC2)c(F)c1 [Example 6, (3R)-3-[(4′-{[4-(7-Chloro-3,3-dimethyl-2-oxo-2,3-dihydro-1H-pyrido[2,3-b][1,4]oxazin-1-yl)piperidin-1-yl]carbonyl}-3′-fluorobiphenyl-2-yl)oxy]butanoic acid] | 5.62 | 54%
C[C@@H](Oc1ccccc1-c1ccc(C(=O)N2CCC(N3C(=O)C(C)(C)Oc4ncc(Cl)cc43)CC2)c(F)c1)[C@@H](C)C(=O)O [Example 9, (2R,3R)-3-[(4′-{[4-(7-Chloro-3,3-dimethyl-2-oxo-2,3-dihydro-1H-pyrido[2,3-b][1,4]oxazin-1-yl)piperidin-1-yl]carbonyl}-3′-fluorobiphenyl-2-yl)oxy]-2-methylbutanoic acid] | 5.68 | 52%
CC[C@@H](COc1ccccc1-c1ccc(C(=O)N2CCC(N3C(=O)C(C)(C)Oc4ncc(Cl)cc43)CC2)c(F)c1)C(=O)O [Example 10, (2S)-2-{[(4′-{[4-(7-Chloro-3,3-dimethyl-2-oxo-2,3-dihydro-1H-pyrido[2,3-b][1,4]oxazin-1-yl)piperidin-1-yl]carbonyl}-3′-fluorobiphenyl-2-yl)oxy]methyl}butanoic acid] | 5.08 | 47%
C[C@@H](COc1ccccc1-c1ccc(C(=O)N2CCC(N3C(=O)C(C)(C)Cc4ncc(Cl)cc43)CC2)c(F)c1)C(=O)O [Example 11, (2S)-3-[(4′-{[4-(7-Chloro-3,3-dimethyl-2-oxo-3,4-dihydro-1,5-naphthyridin-1(2H)-yl)piperidin-1-yl]carbonyl}-3′-fluorobiphenyl-2-yl)oxy]-2-methylpropanoic acid] | 5.21 | 45%
C[C@H](CC(=O)O)Oc1ccc(F)cc1-c1ccc(C(=O)N2CCC(N3C(=O)C(C)(C)Oc4ncc(Cl)cc43)CC2)c(F)c1 [Example 13, (3R)-3-[(4′-{[4-(7-Chloro-3,3-dimethyl-2-oxo-2,3-dihydro-1H-pyrido[2,3-b][1,4]oxazin-1-yl)piperidin-1-yl]carbonyl}-3′,5-difluorobiphenyl-2-yl)oxy]butanoic acid] | 5.39 | 63%
C[C@H](CC(=O)O)Oc1ccc(F)cc1-c1ccc(C(=O)N2CCC(N3C(=O)C(C)(C)Cc4ncc(Cl)cc43)CC2)c(F)c1 [Example 14, (3R)-3-[(4′-{[4-(7-Chloro-3,3-dimethyl-2-oxo-3,4-dihydro-1,5-naphthyridin-1(2H)-yl)piperidin-1-yl]carbonyl}-3′,5-difluorobiphenyl-2-yl)oxy]butanoic acid] | 5.47 | 79%
Cc1cc(-c2ccccc2O[C@H](C)CC(=O)O)ccc1C(=O)N1CCC(N2C(=O)C(C)(C)Oc3ncc(Cl)cc32)CC1 [Example 16, (3R)-3-[(4′-{[4-(7-Chloro-3,3-dimethyl-2-oxo-2,3-dihydro-1H-pyrido[2,3-b][1,4]oxazin-1-yl)piperidin-1-yl]carbonyl}-3′-methylbiphenyl-2-yl)oxy]butanoic acid] | 5.19 | 40%
Cc1cc(-c2cc(F)ccc2O[C@H](C)CC(=O)O)ccc1C(=O)N1CCC(N2C(=O)C(C)(C)Oc3ncc(Cl)cc32)CC1 [Example 17, (3R)-3-[(4′-{[4-(7-Chloro-3,3-dimethyl-2-oxo-2,3-dihydro-1H-pyrido[2,3-b][1,4]oxazin-1-yl)piperidin-1-yl]carbonyl}-5-fluoro-3′-methylbiphenyl-2-yl)oxy]butanoic acid] | 5.01 | 52%
C[C@H](CC(=O)O)Oc1ccccc1-c1ccc(C(=O)N2CCC(N3C(=O)C(C)(C)Oc4ncc(Cl)cc43)CC2)c(Cl)c1 [Example 19, (3R)-3-[(3′-Chloro-4′-{[4-(7-chloro-3,3-dimethyl-2-oxo-2,3-dihydro-1H-pyrido[2,3-b][1,4]oxazin-1-yl)piperidin-1-yl]carbonyl}biphenyl-2-yl)oxy]butanoic acid] | 5.12 | 64%
C[C@@H]1Oc2ncc(Cl)cc2N(C2CCN(C(=O)c3ccc(-c4ccccc4OC[C@H](C)C(=O)O)cc3F)CC2)C1=O [Example 24, (2S)-3-{[4′-({4-[(3S)-7-Chloro-3-methyl-2-oxo-2,3-dihydro-1H-pyrido[2,3-b][1,4]oxazin-1-yl]piperidin-1-yl}carbonyl)-3′-fluorobiphenyl-2-yl]oxy}-2-methylpropanoic acid] | 5.51 | 44%
C[C@@H](COc1ccccc1-c1ccc(C(=O)N2CCC(N3C(=O)C(C)(C)Oc4ncc(Cl)cc43)CC2)c(F)c1)C(=O)O [Example 25, (2S)-3-[(4′-{[4-(7-Chloro-3,3-dimethyl-2-oxo-2,3-dihydro-1H-pyrido[2,3-b][1,4]oxazin-1-yl)piperidin-1-yl]carbonyl}-3′-fluorobiphenyl-2-yl)oxy]-2-methylpropanoic acid] | 5.29 | 46%
C[C@@H]1Oc2ncc(Cl)cc2N(C2CCN(C(=O)c3ccc(-c4cc(F)ccc4OC[C@H](C)C(=O)O)cc3F)CC2)C1=O [Example 26, (2S)-3-{[4′-({4-[(3S)-7-Chloro-3-methyl-2-oxo-2,3-dihydro-1H-pyrido[2,3-b][1,4]oxazin-1-yl]piperidin-1-yl}carbonyl)-3′,5-difluorobiphenyl-2-yl]oxy}-2-methylpropanoic acid] | 5.14 | 55%
C[C@@H](COc1ccc(F)cc1-c1ccc(C(=O)N2CCC(N3C(=O)C(C)(C)Oc4ncc(Cl)cc43)CC2)c(F)c1)C(=O)O [Example 27, (2S)-3-[(4′-{[4-(7-Chloro-3,3-dimethyl-2-oxo-2,3-dihydro-1H-pyrido[2,3-b][1,4]oxazin-1-yl)piperidin-1-yl]carbonyl}-3′,5-difluorobiphenyl-2-yl)oxy]-2-methylpropanoic acid] | 5.19 | 36%
C[C@H](CC(=O)O)Oc1ccccc1-c1ccc(C(=O)N2CCC(N3C(=O)[C@H](C)Oc4ncc(Cl)cc43)CC2)c(F)c1 [Example 28, (3R)-3-{[4′-({4-[(3S)-7-Chloro-3-methyl-2-oxo-2,3-dihydro-1H-pyrido[2,3-b][1,4]oxazin-1-yl]piperidin-1-yl}carbonyl)-3′-fluorobiphenyl-2-yl]oxy}butanoic acid] | 5.74 | 74%
C[C@H](CC(=O)O)Oc1ccc(F)cc1-c1ccc(C(=O)N2CCC(N3C(=O)[C@H](C)Oc4ncc(Cl)cc43)CC2)c(F)c1 [Example 29, (3R)-3-{[4′-({4-[(3S)-7-Chloro-3-methyl-2-oxo-2,3-dihydro-1H-pyrido[2,3-b][1,4]oxazin-1-yl]piperidin-1-yl}carbonyl)-3′,5-difluorobiphenyl-2-yl]oxy}butanoic acid] | 5.37 | 75%
C[C@H](CC(=O)O)Oc1ccccc1-c1cc(F)c(C(=O)N2CCC(N3C(=O)C(C)(C)Oc4ncc(Cl)cc43)CC2)cc1F [Example 34, (3R)-3-[(4′-{[4-(7-Chloro-3,3-dimethyl-2-oxo-2,3-dihydro-1H-pyrido[2,3-b][1,4]oxazin-1-yl)piperidin-1-yl]carbonyl}-2′,5′-difluorobiphenyl-2-yl)oxy]butanoic acid] | 5.64 | 55%
Cc1cc(-c2ccccc2O[C@H](C)CC(=O)O)c(C)cc1C(=O)N1CCC(N2C(=O)C(C)(C)Oc3ncc(Cl)cc32)CC1 [Example 54, (3R)-3-[(4′-{[4-(7-Chloro-3,3-dimethyl-2-oxo-2,3-dihydro-1H-pyrido[2,3-b][1,4]oxazin-1-yl)piperidin-1-yl]carbonyl}-2′,5′-dimethylbiphenyl-2-yl)oxy]butanoic acid] | 4.94 | 
